Measurements reported in US7119088B2, “Triazole compounds useful in therapy” (Pfizer Inc., priority 2003, dated 2006).
Where a name gives a salt, the structure may show the parent alone.

Target: T1, human V1A receptor (Homo sapiens, UniProt P37288)
T1 construct: host or cells: CHO (CHO-hV1A), membrane preparation
Experiment: V1A filter binding assay (screen 1.0)
Conditions: [3H]-AVP binding to CHO-hV1A membranes; Ki by Cheng-Prusoff
Description: 1.0 V1A Filter Binding Assay
Receptor binding assays were performed on cellular membranes prepared from CHO cells stably expressing the human V1A receptor, (CHO-hV1A). The CHO-hV1A cell line was kindly provided under a licensing agreement by Marc Thibonnier, Dept. of Medicine, Case Western Reserve University School of Medicine, Cleveland, Ohio. CHO-hV1A cells were routinely maintained at 37° C. in humidified atmosphere with 5% CO2 in DMEM/Hams F12 nutrient mix supplemented with 10% fetal bovine serum, 2 mM L-glutamine, 15 mM HEPES and 400 μg/ml G418. For bulk production of cell pellets, adherent CHO-hV1A cells were grown to confluency of 90–100% in 850 cm^2 roller bottles containing a medium of DMEM/Hams F12 Nutrient Mix supplemented with 10% fetal bovine serum, 2 mM L-glutamine and 15 mM HEPES. Confluent CHO-hV1A cells were washed with phosphate-buffered saline (PBS), harvested into ice cold PBS and centrifuged at 1,000 rpm. Cell pellets were stored at −80° C. until use. Cell pellets were thawed on ice and homogenised in membrane preparation buffer consisting of 50 mM Tris-HCl, pH 7.4, 5 mM MgCl2 and supplemented with a protease inhibitor cocktail, (Roche). The cell homogenate was centrifuged at 1000 rpm, 10 min, 4° C. and the supernatant was removed and stored on ice. The remaining pellet was homogenised and centrifuged as before. The supernatants were pooled and centrifuged at 25,000×g for 30 min at 4° C. The pellet was resuspended in freezing buffer consisting of 50 mM Tris-HCl, pH 7.4, 5 mM MgCl2 and 20% glycerol and stored in small aliquots at −80° C. until use. Protein concentration was determined using Bradford reagent and BSA as a standard.
Protein linearity followed by saturation binding studies were performed on each new batch of membrane. Membrane concentration was chosen that gave specific binding on the linear portion of the curve.
Compounds were tested for their effects on [^3H]-AVP binding to CHO-hV1A membranes, (^3H-AVP; specific activity 65.5 Ci/mmol; NEN Life Sciences). Compounds were solubilised in dimethylsulfoxide (DMSO) and diluted to working concentration of 10% DMSO with assay buffer containing 50 mM Tris-HCL pH 7.4, 5 mM MgCl2 and 0.05% BSA. […] The binding reaction was initiated by the addition of 200 μl membrane and the plates were gently shaken for 60 min at room temperature. […] The filters were washed three times with 1 ml ice cold wash buffer containing 50 mM Tris-HCL pH 7.4 and 5 mM MgCl2. The plates were dried and 50 μl Microscint-O (Packard instruments) was added to each well. The plates were sealed and counted on a TopCount Microplate Scintillation Counter (Packard Instruments). Non-specific binding (NSB) was determined using 1 μM unlabelled d(CH2)5Tyr(Me)AVP ([β-mercapto-β,β-cyclopentamethylenepropionyl,0-Me-Tyr^2,Arg^8]-vasopressin ) (βMCPVP), (Sigma). The radioligand binding data was analysed using a four parameter logistic equation with the min forced to 0%. […] Specific binding was calculated by subtracting the mean NSB cpm from the mean Total cpm. For test compounds the amount of ligand bound to the receptor was expressed as % bound=(sample cpm—mean NSB cpm)/specific binding cpm×100. The % bound was plotted against the concentration of test compound and a sigmoidal curve was fitted. The inhibitory dissociation constant (Ki) was calculated using the Cheng-Prusoff equation: Ki=IC50/(1+[L]/Kd) where [L] is the concentration of ligand present in the well and Kd is the dissociation constant of the radioligand obtained from Scatchard plot analysis.

T1 sequence (P37288 whole entry): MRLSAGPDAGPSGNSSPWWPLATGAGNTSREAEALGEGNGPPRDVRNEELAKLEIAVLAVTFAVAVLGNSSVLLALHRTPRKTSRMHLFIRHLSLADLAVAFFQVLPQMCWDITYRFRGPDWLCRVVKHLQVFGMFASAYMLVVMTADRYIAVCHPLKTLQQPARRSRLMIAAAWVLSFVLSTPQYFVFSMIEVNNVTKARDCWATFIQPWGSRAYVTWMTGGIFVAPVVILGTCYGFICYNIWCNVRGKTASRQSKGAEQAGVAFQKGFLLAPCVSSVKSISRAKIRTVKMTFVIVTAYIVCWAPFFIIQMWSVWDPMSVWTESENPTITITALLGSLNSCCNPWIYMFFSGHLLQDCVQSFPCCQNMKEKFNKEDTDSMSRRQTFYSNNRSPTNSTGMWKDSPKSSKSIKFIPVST

| SMILES | Ki |
| --- | --- |
| CN1CCc2cc(Cl)ccc2-n2c(nnc2C2CCN(c3ncccn3)CC2)C1 [Example 103, 13-Chloro-8-methyl-3-(1-pyrimidin-2-yl-piperidin-4-yl)-2,4,5,8-tetraaza-tricyclo[9.4.0.0*2,6*]pentadeca-1(11),3,5,12,14-pentaene] | 2.02 nM |
| CN1Cc2cc(Cl)ccc2-n2c(nnc2C2CCN(c3ncccn3)CC2)C1 [Example 13, 8-Chloro-5-methyl-1-(1-pyrimidin-2-yl-piperidin-4-yl)-5,6-dihydro-4H-2,3,5,10b-tetraaza-benzo[e]azulene] | 13.9 nM |
| CC(C)N1Cc2cc(Cl)ccc2-n2c(nnc2C2CCN(c3ccccn3)CC2)C1 [Example 6, 8-Chloro-5-isopropyl-1-(3,4,5,6-tetrahydro-2H-[1,2′]bipyridinyl-4-yl)-5,6-dihydro-4H-2,3,5,10b-tetraaza-benzo[e]azulene trihydrochloride] | 2.37 nM |
| CS(=O)(=O)N1Cc2cc(Cl)ccc2-n2c(nnc2C2CCN(c3ncccn3)CC2)C1 [Example 15, 8-Chloro-5-methanesulfonyl-1-(1-pyrimidin-2-yl-piperidin-4-yl)-5,6-dihydro-4H-2,3,5,10b-tetraaza-benzo[e]azulene] | 4.71 nM |
| CN1CCOC(CN2Cc3cc(Cl)ccc3-n3c(nnc3C3CCN(c4ccccn4)CC3)C2)C1 (single isomer, unassigned) [Example 73, 8-Chloro-5-(4-methyl-morpholin-2-ylmethyl)-1-(3,4,5,6-tetrahydro-2H-[1,2′]bipyridinyl-4-yl)-5,6-dihydro-4H-2,3,5,10b-tetraaza-benzo[e]azulene] | 6.84 nM |
| CN1CCOC(CN2Cc3cc(Cl)ccc3-n3c(nnc3C3CCN(c4ccccn4)CC3)C2)C1 (single isomer, unassigned) [Example 74, 8-Chloro-5-(4-methyl-morpholin-2-ylmethyl)-1-(3,4,5,6-tetrahydro-2H-[1,2′]bipyridinyl-4-yl)-5,6-dihydro-4H-2,3,5,10b-tetraaza-benzo[e]azulene] | 6.02 nM |
| Clc1ccc2c(c1)CN(c1ncccn1)Cc1nnc(C3CCN(c4ccccn4)CC3)n1-2 [Example 93, 8-Chloro-5-pyrimidin-2-yl-1-(3,4,5,6-tetrahydro-2H-[1,2′]bipyridinyl-4-yl)-5,6-dihydro-4H-2,3,5,10b-tetraaza-benzo[e]azulene] | 2.33 nM |
| CN(C)CC(=O)N1Cc2cc(Cl)ccc2-n2c(nnc2C2CCN(c3ccccn3)CC2)C1 [Example 38, 1-[8-Chloro-1-(3,4,5,6-tetrahydro-2H-[1,2′]bipyridinyl-4-yl)-4H,6H-2,3,5,10b-tetraaza-benzo[e]azulen-5-yl]-2-dimethylamino-ethanone] | 4.63 nM |
| Clc1ccc2c(c1)CCOCc1nnc(C3CCN(c4ccccn4)CC3)n1-2 [Example 27, 13-Chloro-3-(3,4,5,6-tetrahydro-2H-[1,2′]bipyridinyl-4-yl)-8-oxa-2,4,5-triaza-tricyclo[9.4.0.0*2,6*]pentadeca-1(11),3,5,12,14-pentaene] | 1.25 nM |
| CN1CCc2nnc(C3CCN(c4ccccn4)CC3)n2-c2ccc(Cl)cc2C1 [Example 102, 13-Chloro-9-methyl-3-(3,4,5,6-tetrahydro-2H-[1,2′]bipyridinyl-4-yl)-2,4,5,9-tetraaza-tricyclo[9.4.0.0*2,6*]pentadeca-1(11),3,5,12,14-pentaene] | 4.16 nM |
| CN1CCc2cc(Cl)ccc2-n2c(nnc2C2CCN(c3ccccn3)CC2)C1 [Example 24, 13-Chloro-8-methyl-3-(3,4,5,6-tetrahydro-2H-[1,2′]bipyridinyl-4-yl)-2,4,5,8-tetraaza-tricyclo[9.4.0.0*2,6*]pentadeca-1(11),3,5,12,14-pentaene] | 1 nM |
| CN(C)S(=O)(=O)N1Cc2cc(Cl)ccc2-n2c(nnc2C2CCN(c3ncccn3)CC2)C1 [Example 100, 8-Chloro-1-(1-pyrimidin-2-yl-piperidin-4-yl)-4H,6H-2,3,5,10b-tetraaza-benzo[e]azulene-5-sulphonic acid dimethylamide] | 0.77 nM |
| O=C(N1CCOCC1)N1Cc2cc(Cl)ccc2-n2c(nnc2C2CCN(c3ccccn3)CC2)C1 [Example 59] | 1.32 nM |
